Legend:
Assay type in all cases: functional
[1] = test system: Cortical neurone; test: Neuroprotective activity against Sprague-Dawley rat cortical neurons assessed as glutamate-induced LDH release at 10 uM for 1 hr before glutamate challenge measured after 24 hrs by spectrophotometry
[2] = test system: Cortical neurone; test: Neuroprotective activity against Sprague-Dawley rat cortical neurons assessed as glutamate-induced LDH release at 0.1 uM for 1 hr before glutamate challenge measured after 24 hrs by spectrophotometry
[3] = test system: Cortical neurone; test: Neuroprotective activity against Sprague-Dawley rat cortical neurons assessed as glutamate-induced LDH release at 1 uM for 1 hr before glutamate challenge measured after 24 hrs by spectrophotometry

With COc1ccc(/C=C/C(=O)O[C@@]2(C)C[C@@H](O)[C@]3(O)C=CO[C@@H](O[C@@H]4O[C@H](CO)[C@@H](O)[C@H](O)[C@H]4O)[C@@H]32)cc1 the Activity [1] was 58.9%, the Activity [2] was 54.9% and the Activity [3] was 61.8%.
With COc1ccc(/C=C\C(=O)O[C@@]2(C)C[C@@H](O)[C@]3(O)C=CO[C@@H](O[C@@H]4O[C@H](CO)[C@@H](O)[C@H](O)[C@H]4O)[C@@H]32)cc1 the Activity [1] was 49.6%, the Activity [2] was 40.7% and the Activity [3] was 48.2%.
Molecule COc1ccc(/C=C\C(=O)OC[C@H]2O[C@@H](O[C@@H]3OC=C[C@@]4(O)[C@H](O)C[C@](C)(O)[C@@H]34)[C@H](O)[C@@H](O)[C@@H]2O)cc1 has an Activity [1] of 46.6%, an Activity [2] of 33.3% and an Activity [3] of 47.6%.
In the case of COc1ccc(/C=C/C(=O)OC[C@H]2O[C@@H](O[C@@H]3OC=C[C@@]4(O)[C@H](O)C[C@](C)(O)[C@@H]34)[C@H](O)[C@@H](O)[C@@H]2O)cc1, the Activity [1] was 60.3%, the Activity [2] was 39.1% and the Activity [3] was 60.9%.
For N#Cc1cc2c(cc1[N+](=O)[O-])=NC(=O)C(=O)N=2, the Activity [1] was 61.6%, the Activity [2] was 28.1% and the Activity [3] was 47.3%.
In the case of NC(CCCP(=O)(O)O)C(=O)O (racemic), the Activity [1] was 43.6%, the Activity [2] was 5.7% and the Activity [3] was 27.8%.
C[C@]12N[C@H](Cc3ccccc31)c1ccccc12.O=C(O)/C=C\C(=O)O [DIZOCILPINE MALEATE] showed an Activity [1] of 83.6%, an Activity [2] of 31.8% and an Activity [3] of 61.5%.
Work on C[C@]1(O)C[C@@H](O)[C@]2(O)C=CO[C@@H](O[C@H]3O[C@H](CO)[C@@H](O)[C@H](O)[C@H]3O)[C@@H]21 [HARPAGIDE] yielded an Activity [1] of 46.2%, an Activity [2] of 41.4% and an Activity [3] of 42.2%.
C[C@]1(OC(=O)/C=C/c2ccccc2)C[C@@H](O)[C@]2(O)C=CO[C@@H](O[C@@H]3O[C@H](CO)[C@@H](O)[C@H](O)[C@H]3O)[C@@H]21 [HARPAGOSIDE] gave an Activity [1] of 44.7%, an Activity [2] of 38.2% and an Activity [3] of 38.5%.
C[C@]1(OC(=O)/C=C\c2ccccc2)C[C@@H](O)[C@]2(O)C=CO[C@@H](O[C@@H]3O[C@H](CO)[C@@H](O)[C@H](O)[C@H]3O)[C@@H]21 [Z-harpagoside] was tested, and the Activity [1] was 42.5%, the Activity [2] was 26.4% and the Activity [3] was 38.8%.
